# Experimental data reported in the supplement of paper PMC10307832.
# Assays:
# Experiment in all cases: relative viability (nuclei count vs DMSO), 5 days (fraction); higher = more cells survive
# NCI-H1915 = test system: NCI-H1915
# How it was run: (§1)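 Lung cancer cell lines in 1536-well plates were dosed by pin tool the day after seeding, either with one drug alone or with a fixed anchor-drug dose plus five library-drug doses (not always all listed) in √10 steps. After 5 days, cells were fixed and their nuclei stained in one step (final 0.05% Triton X-100, 1% formaldehyde, 1 ug/ml Hoechst), then counted on 4× images. Relative viability is the nuclei count in treated wells divided by that in vehicle wells. Values are medians of duplicate plates.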
# LCLC-103H = test system: LCLC-103H
# How it was run: as §1
# LXF-289 = test system: LXF-289
# How it was run: as §1
# A-427 = test system: A-427
# How it was run: as §1
# NCI-H1651 = test system: NCI-H1651
# How it was run: as §1
# NCI-H596 = test system: NCI-H596
# How it was run: as §1
# EKVX = test system: EKVX
# How it was run: as §1
# NCI-H2347 = test system: NCI-H2347
# How it was run: as §1
# COR-L23 = test system: COR-L23
# How it was run: as §1
# HCC-44 = test system: HCC-44
# How it was run: as §1
# NCI-H358 = test system: NCI-H358
# How it was run: as §1
# 201T = test system: 201T
# How it was run: as §1
# EPLC-272H = test system: EPLC-272H
# How it was run: as §1
# NCI-H1793 = test system: NCI-H1793
# How it was run: as §1
# NCI-H460 = test system: NCI-H460
# How it was run: as §1
# NCI-H1650 = test system: NCI-H1650
# How it was run: as §1
# LK-2 = test system: LK-2
# How it was run: as §1
# NCI-H2087 = test system: NCI-H2087
# How it was run: as §1
# EMC-BAC-2 = test system: EMC-BAC-2
# How it was run: as §1
# NCI-H2126 = test system: NCI-H2126
# How it was run: as §1
# SW 1573 = test system: SW 1573
# How it was run: as §1
# HCC-827 = test system: HCC-827
# How it was run: as §1
# BEN = test system: BEN
# How it was run: as §1
compound,measurement,setting,value
Cc1cnc(-c2cnc(NCCNc3ccc(C#N)cn3)nc2-c2ccc(Cl)cc2Cl)[nH]1 + N=C(N)NC(=N)NCCc1ccccc1 [Phenformin] (partner 250 µM),relative viability,NCI-H1915; first compound 0.08 µM,0.378
same,relative viability,NCI-H1915; first compound 0.253 µM,0.346
same,relative viability,NCI-H1915; first compound 0.8 µM,0.356
same,relative viability,NCI-H1915; first compound 2.53 µM,0.389
same,relative viability,LCLC-103H; first compound 0.08 µM,0.273
same,relative viability,LCLC-103H; first compound 0.253 µM,0.342
same,relative viability,LCLC-103H; first compound 0.8 µM,0.31
same,relative viability,LCLC-103H; first compound 2.53 µM,0.3
same,relative viability,LXF-289; first compound 0.08 µM,0.508
same,relative viability,LXF-289; first compound 0.253 µM,0.482
same,relative viability,LXF-289; first compound 0.8 µM,0.536
same,relative viability,LXF-289; first compound 2.53 µM,0.503
same,relative viability,A-427; first compound 0.08 µM,0.307
same,relative viability,A-427; first compound 0.253 µM,0.327
same,relative viability,A-427; first compound 0.8 µM,0.378
same,relative viability,A-427; first compound 2.53 µM,0.342
same,relative viability,NCI-H1651; first compound 0.08 µM,0.383
same,relative viability,NCI-H1651; first compound 0.253 µM,0.494
same,relative viability,NCI-H1651; first compound 0.8 µM,0.32
same,relative viability,NCI-H1651; first compound 2.53 µM,0.324
same,relative viability,NCI-H596; first compound 0.08 µM,0.834
same,relative viability,NCI-H596; first compound 0.253 µM,0.763
same,relative viability,NCI-H596; first compound 0.8 µM,0.595
same,relative viability,NCI-H596; first compound 2.53 µM,0.761
same,relative viability,EKVX; first compound 0.08 µM,0.192
same,relative viability,EKVX; first compound 0.253 µM,0.226
same,relative viability,EKVX; first compound 0.8 µM,0.196
same,relative viability,EKVX; first compound 2.53 µM,0.222
same,relative viability,NCI-H2347; first compound 0.08 µM,0.425
same,relative viability,NCI-H2347; first compound 0.253 µM,0.5
same,relative viability,NCI-H2347; first compound 0.8 µM,0.397
same,relative viability,NCI-H2347; first compound 2.53 µM,0.477
same,relative viability,COR-L23; first compound 0.08 µM,0.493
same,relative viability,COR-L23; first compound 0.253 µM,0.449
same,relative viability,COR-L23; first compound 2.53 µM,0.408
same,relative viability,HCC-44; first compound 0.08 µM,0.209
same,relative viability,HCC-44; first compound 0.253 µM,0.192
same,relative viability,HCC-44; first compound 0.8 µM,0.182
same,relative viability,HCC-44; first compound 2.53 µM,0.139
same,relative viability,NCI-H358; first compound 0.08 µM,0.34
same,relative viability,NCI-H358; first compound 0.253 µM,0.307
same,relative viability,NCI-H358; first compound 0.8 µM,0.336
same,relative viability,NCI-H358; first compound 2.53 µM,0.299
same,relative viability,201T; first compound 0.08 µM,0.469
same,relative viability,201T; first compound 0.8 µM,0.397
same,relative viability,201T; first compound 2.53 µM,0.473
same,relative viability,EPLC-272H; first compound 0.08 µM,0.333
same,relative viability,EPLC-272H; first compound 0.253 µM,0.318
same,relative viability,EPLC-272H; first compound 0.8 µM,0.315
same,relative viability,EPLC-272H; first compound 2.53 µM,0.316
same,relative viability,NCI-H1793; first compound 0.08 µM,0.397
same,relative viability,NCI-H1793; first compound 0.253 µM,0.333
same,relative viability,NCI-H1793; first compound 0.8 µM,0.355
same,relative viability,NCI-H1793; first compound 2.53 µM,0.375
same,relative viability,NCI-H460; first compound 0.08 µM,0.551
same,relative viability,NCI-H460; first compound 0.253 µM,0.452
same,relative viability,NCI-H460; first compound 0.8 µM,0.513
same,relative viability,NCI-H460; first compound 2.53 µM,0.41
same,relative viability,NCI-H1650; first compound 0.08 µM,0.497
same,relative viability,NCI-H1650; first compound 0.253 µM,0.428
same,relative viability,NCI-H1650; first compound 0.8 µM,0.384
same,relative viability,NCI-H1650; first compound 2.53 µM,0.276
same,relative viability,LK-2; first compound 0.08 µM,0.549
same,relative viability,LK-2; first compound 0.253 µM,0.501
same,relative viability,LK-2; first compound 0.8 µM,0.379
same,relative viability,LK-2; first compound 2.53 µM,0.641
same,relative viability,NCI-H2087; first compound 0.08 µM,0.571
same,relative viability,NCI-H2087; first compound 0.253 µM,0.379
same,relative viability,NCI-H2087; first compound 0.8 µM,0.442
same,relative viability,NCI-H2087; first compound 2.53 µM,0.329
same,relative viability,EMC-BAC-2; first compound 0.08 µM,0.578
same,relative viability,EMC-BAC-2; first compound 0.253 µM,0.507
same,relative viability,EMC-BAC-2; first compound 0.8 µM,0.542
same,relative viability,EMC-BAC-2; first compound 2.53 µM,0.467
same,relative viability,NCI-H2126; first compound 0.08 µM,0.526
same,relative viability,NCI-H2126; first compound 0.253 µM,0.533
same,relative viability,NCI-H2126; first compound 0.8 µM,0.506
same,relative viability,NCI-H2126; first compound 2.53 µM,0.567
same,relative viability,SW 1573; first compound 0.08 µM,0.515
same,relative viability,SW 1573; first compound 0.253 µM,0.334
same,relative viability,SW 1573; first compound 0.8 µM,0.436
same,relative viability,SW 1573; first compound 2.53 µM,0.3
same,relative viability,HCC-827; first compound 0.08 µM,0.384
same,relative viability,HCC-827; first compound 0.8 µM,0.362
same,relative viability,HCC-827; first compound 2.53 µM,0.337
same,relative viability,BEN; first compound 0.08 µM,0.232
same,relative viability,BEN; first compound 0.253 µM,0.269
same,relative viability,BEN; first compound 0.8 µM,0.252
same,relative viability,BEN; first compound 2.53 µM,0.261
